Laboratory results taken from the PolyMetriX glass transition set.
± gives the standard deviation of the reports.

Compound | glass transition temperature
*c1ccc(Oc2ccc(Oc3ccc(Oc4ccc(N5C(=O)c6ccc(Oc7ccc(Oc8ccc9c(c8)C(=O)N(*)C9=O)cc7)cc6C5=O)cc4)cc3)cc2)cc1 (repeat unit) | 210.00 °C
*CC(O)COc1ccc(C(C)(C)c2ccc(OCC(O)COc3cccc(NC(=O)CCCCC(=O)Nc4cccc(O*)c4)c3)cc2)cc1 (repeat unit) | 103.00 °C
*CC(O)CN(C)S(=O)(=O)c1cccc(S(=O)(=O)N(C)CC(O)COc2ccc(O*)cc2)c1 (repeat unit) | 66.00 °C
*CCC/C=C(/*)c1ccc(OC)cc1 (repeat unit) | 11.00 °C
*CC(*)C(=O)OCC(COC(=O)c1ccccc1)(COC(=O)c1ccccc1)COC(=O)c1ccccc1 (repeat unit) | 48.00 °C
*C/C(C)=C/C(C)S(*)(=O)=O (repeat unit) | 83.00 °C
*CC(*)C(=O)Nc1ccc(Cl)cc1 (repeat unit) | 76.00 °C
*CC(*)[Si](C)(C)C (repeat unit) | 137.00 °C
*CC(*)OC(=O)c1ccc(CC)cc1 (repeat unit) | 57.00 °C
*CC(CSCCC)O* (repeat unit) | -61.00 °C
*SC(C)C(*)=O (repeat unit) | 12.00 °C
*CC(*)(C)C(=O)OCCCCCCOc1ccc(C(=O)Oc2ccc(/N=N/c3ccc(F)cc3)c3ccccc23)cc1 (repeat unit) | 42.00 °C
*CCC[Si](*)(C)O[Si](C)(C)CCCOc1ccc(C(=O)Oc2ccc(C#N)cc2)cc1 (repeat unit) | -19.10 °C
*c1ncnc(N(CCCCN(*)c2ccccc2)c2ccccc2)n1 (repeat unit) | 91.00 °C
*CC(*)OC(=O)CCl (repeat unit) | 20.5 °C
*O[Si](*)(C)CCCOc1ccc(C(=O)OC2CCC3(C)C(=CCC4C3CCC3(C)C(C(C)CCCC(C)C)CCC43)C2)cc1S(=O)(=O)[O][K] (repeat unit) | 112.60 °C
*COC(=O)NCCCCCCNC(=O)OCc1ccc(*)o1 (repeat unit) | 33.00 °C
*C(=S)Nc1ccc(Oc2ccc(NC(=S)N3C(=O)c4ccc(C(=O)c5ccc6c(c5)C(=O)N(*)C6=O)cc4C3=O)cc2)cc1 (repeat unit) | 262.00 °C
*c1ccc(-c2nc3cc(-c4ccc5nc(-c6ccccc6)c(-c6ccc(-n7c(=O)c8cc9c(=O)n(*)c(=O)c9cc8c7=O)cc6)nc5c4)ccc3nc2-c2ccccc2)cc1 (repeat unit) | 217.00 °C
*CCCCCCOc1ccc(-c2ccc(O*)c3ccccc23)c2ccccc12 (repeat unit) | 109.00 °C
*Oc1cccc(NC(=O)c2ccc(C(=O)Nc3ccc(*)cc3)cc2)c1 (repeat unit) | 280.00 °C
*N=P(Cl)(N=P(/N=S(/*)Oc1cccc(-c2ccccc2)c1)(Oc1cccc(-c2ccccc2)c1)Oc1cccc(-c2ccccc2)c1)Oc1cccc(-c2ccccc2)c1 (repeat unit) | 32.00 °C
*CCC[Si](*)(C)c1cccc(C)c1 (repeat unit) | -25.00 °C
*c1ccc(Oc2ccc(Sc3ccc(Oc4ccc(-c5nc(*)nc(-c6ccccc6)n5)cc4)cc3)cc2)cc1 (repeat unit) | 211.00 °C
*c1ccc2c(c1)C(=O)N(c1ccc(NC(=S)/N=C/c3ccc(Cl)c(N4C(=O)c5ccc(C(*)(C(F)(F)F)C(F)(F)F)cc5C4=O)c3)cc1)C2=O (repeat unit) | 272.00 °C
*c1cccc(P(=O)(c2ccc(C(F)(F)F)cc2)c2cccc(-n3c(=O)c4cc5c(=O)n(*)c(=O)c5cc4c3=O)c2)c1 (repeat unit) | 311.00 °C
*CC(*)(C)C(=O)OCc1cccs1 (repeat unit) | 66.00 °C
*Oc1c(C(C)C)cc(*)cc1C(C)C (repeat unit) | 152.40 °C
*O[Si](*)(C)CCc1cc(C(=O)Oc2ccc(OCCCC)cc2)ccc1C(=O)Oc1ccc(OCCCC)cc1 (repeat unit) | 92.00 °C
*c1ccc(Oc2ccc(Oc3ccc(N4C(=O)c5ccc(Oc6ccc(C7(c8ccc(Oc9ccc%10c(c9)C(=O)N(*)C%10=O)cc8)CCC(C(C)(C)C)CC7)cc6)cc5C4=O)cc3)c(C(C)(C)C)c2)cc1 (repeat unit) | 233.00 °C

More lines, now with the values ahead:

glass transition temperature | Compound
16.20 °C | *c1ccc(-c2cc(CCCCCCCC)c(-c3ccc(-c4sc(*)cc4CCCCCCCC)cc3)s2)cn1 (repeat unit)
250.00 °C | *c1ccc(OC(=O)c2ccc([Si](c3ccccc3)(c3ccccc3)c3ccc(C(=O)Oc4ccc(C5(*)OC(=O)c6ccccc65)cc4)cc3)cc2)cc1 (repeat unit)
242.00 °C | *c1ccc(Oc2cc(C(C)(C)C)c(Oc3ccc(N4C(=O)c5ccc(Oc6ccc7c(c6)C(=O)N(*)C7=O)cc5C4=O)cc3)cc2C(C)(C)C)cc1 (repeat unit)
63.00 °C | *CC(CCCCCCCCCCCCCCCC)C1C(=O)N(CCCCNC(=O)C(F)(F)C(F)(F)C(F)(F)C(F)(F)C(F)(F)C(F)(F)C(F)(F)F)C(=O)C1* (repeat unit)
303.00 °C | *Nc1ccc(C(C)(C)c2ccc(NC(=O)c3cc(C(*)=O)cc(N4C(=O)C=CC4=O)c3)cc2)cc1 (repeat unit)
250.00 °C | *c1cc(N2C(=O)c3ccc(Oc4cc5ccccc5cc4Oc4ccc5c(c4)C(=O)N(*)C5=O)cc3C2=O)cc(C(F)(F)F)c1 (repeat unit)
277.50 °C | *c1ccc(-c2nc3cc(S(=O)(=O)c4ccc5nc(*)c(-c6ccccc6)nc5c4)ccc3nc2-c2ccccc2)cc1 (repeat unit)
128.00 °C | *Oc1ccc(/C(=C/c2ccc(-c3ccc(/C=C(\c4ccccc4)c4ccc(OC(=O)CCCCC(*)=O)cc4)cc3)cc2)c2ccccc2)cc1 (repeat unit)
168.00 °C | *CCCCCCOC(=O)NCCCCCCNC(=O)O* (repeat unit)
156.00 °C | *CC(*)(C)C(=O)Oc1ccc(-c2nnc(-c3ccc(C(C)(C)C)cc3)o2)cc1 (repeat unit)
66.00 °C | *CC(COc1ccc(C(C)(C)c2ccc(O*)cc2)cc1)OC(=O)c1ccccc1Cl (repeat unit)
90.00 °C | *COc1ccc(C(C)(C)c2ccc(O*)cc2)cc1 (repeat unit)
-72.00 °C | *O[Si](C)(C)O[Si](C)(C)O[Si](C)(C)O[Si](C)(C)c1ccc([Si](*)(C)C)cc1 (repeat unit)
72.00 °C | *CC(=O)NCCCCCCNC(=O)CCc1ccc(O*)cc1 (repeat unit)
92.00 °C | *c1cc(Br)c(-c2c(Br)cc(N3C(=O)c4ccc(-c5ccc6c(c5)C(=O)N(*)C6=O)cc4C3=O)cc2C(=O)OCCCCCCCCCCCCCCCC)c(C(=O)OCCCCCCCCCCCCCCCC)c1 (repeat unit)
365.00 °C | *c1cccc(-c2nc3cc4nc(-c5ccccc5)c(*)nc4cc3nc2-c2ccccc2)c1 (repeat unit)
293.8 ± 1.8 °C | *c1ccc(Oc2ccc(N3C(=O)c4cccc(Oc5cccc6c5C(=O)N(*)C6=O)c4C3=O)cc2)cc1 (repeat unit)
